In US11021444B2, “Antiviral compounds” (priority 2013, dated 2021):
Like-named read-outs stand apart in the source and are kept apart here.

Tests used:
RSV replicon = assay: microbe, parasite or virus in culture; type: cell-based; details: human respiratory syncytial virus, read-out: EC50, the concentration of the drug required for reducing RSV replicon RNA by 50%
recombinant RSV complex = recombinant RSV complex (Human respiratory syncytial virus A, UniProt P28887); assay: RSV Polymerase Inhibition Assay; type: biochemical
How it was run: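 Inhibition measured as reduced incorporation of radiolabel into RNA products, detected by scintillation counting. Reactions: recombinant RSV complex (10 nM), RNA oligonucleotides, Tris-HCl pH 7.5, 6 mM MgCl2, inhibitor titration, 2 h at 30 °C, EDTA stop.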

[1] = Cytotoxicity Determination (CCK-8, without addition of virus); type: cell-based; details: human, 50% cytotoxicity concentration (CC50)
How it was run: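 Cytotoxicity was measured by CCK-8 after 3-4 hours at 37 °C, following 5 days of uninfected exposure at 37 °C and 5% CO2. Compounds ran as duplicate 7-point 1/2 dilutions starting at 100 μM, with 1% final DMSO. HEp-2 cells had been plated at 1,500/well the day before.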

[2] = system: Respiratory Syncytial Virus (RSV) long strain; assay: microbe, parasite or virus in culture; type: cell-based; details: human respiratory syncytial virus, HEp-2, 120 h, read-out: 50% effective concentration (EC50), HEp-2 cells infected with RSV long strain, 5 days, CCK-8 readout; Tables A and B list compounds by EC50 band
How it was run: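 CPE-reduction format: viability measured colorimetrically with CCK-8 (450 nm, 630 nm reference) after 3-4 h, following 5-day infection at 37 °C, 5% CO2. Cells were HEp-2; inoculum 100 TCID50/well; duplicate 9-point 1/3 series starting at 100 μM or 1 μM.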

Sequence of recombinant RSV complex (P28887 whole entry): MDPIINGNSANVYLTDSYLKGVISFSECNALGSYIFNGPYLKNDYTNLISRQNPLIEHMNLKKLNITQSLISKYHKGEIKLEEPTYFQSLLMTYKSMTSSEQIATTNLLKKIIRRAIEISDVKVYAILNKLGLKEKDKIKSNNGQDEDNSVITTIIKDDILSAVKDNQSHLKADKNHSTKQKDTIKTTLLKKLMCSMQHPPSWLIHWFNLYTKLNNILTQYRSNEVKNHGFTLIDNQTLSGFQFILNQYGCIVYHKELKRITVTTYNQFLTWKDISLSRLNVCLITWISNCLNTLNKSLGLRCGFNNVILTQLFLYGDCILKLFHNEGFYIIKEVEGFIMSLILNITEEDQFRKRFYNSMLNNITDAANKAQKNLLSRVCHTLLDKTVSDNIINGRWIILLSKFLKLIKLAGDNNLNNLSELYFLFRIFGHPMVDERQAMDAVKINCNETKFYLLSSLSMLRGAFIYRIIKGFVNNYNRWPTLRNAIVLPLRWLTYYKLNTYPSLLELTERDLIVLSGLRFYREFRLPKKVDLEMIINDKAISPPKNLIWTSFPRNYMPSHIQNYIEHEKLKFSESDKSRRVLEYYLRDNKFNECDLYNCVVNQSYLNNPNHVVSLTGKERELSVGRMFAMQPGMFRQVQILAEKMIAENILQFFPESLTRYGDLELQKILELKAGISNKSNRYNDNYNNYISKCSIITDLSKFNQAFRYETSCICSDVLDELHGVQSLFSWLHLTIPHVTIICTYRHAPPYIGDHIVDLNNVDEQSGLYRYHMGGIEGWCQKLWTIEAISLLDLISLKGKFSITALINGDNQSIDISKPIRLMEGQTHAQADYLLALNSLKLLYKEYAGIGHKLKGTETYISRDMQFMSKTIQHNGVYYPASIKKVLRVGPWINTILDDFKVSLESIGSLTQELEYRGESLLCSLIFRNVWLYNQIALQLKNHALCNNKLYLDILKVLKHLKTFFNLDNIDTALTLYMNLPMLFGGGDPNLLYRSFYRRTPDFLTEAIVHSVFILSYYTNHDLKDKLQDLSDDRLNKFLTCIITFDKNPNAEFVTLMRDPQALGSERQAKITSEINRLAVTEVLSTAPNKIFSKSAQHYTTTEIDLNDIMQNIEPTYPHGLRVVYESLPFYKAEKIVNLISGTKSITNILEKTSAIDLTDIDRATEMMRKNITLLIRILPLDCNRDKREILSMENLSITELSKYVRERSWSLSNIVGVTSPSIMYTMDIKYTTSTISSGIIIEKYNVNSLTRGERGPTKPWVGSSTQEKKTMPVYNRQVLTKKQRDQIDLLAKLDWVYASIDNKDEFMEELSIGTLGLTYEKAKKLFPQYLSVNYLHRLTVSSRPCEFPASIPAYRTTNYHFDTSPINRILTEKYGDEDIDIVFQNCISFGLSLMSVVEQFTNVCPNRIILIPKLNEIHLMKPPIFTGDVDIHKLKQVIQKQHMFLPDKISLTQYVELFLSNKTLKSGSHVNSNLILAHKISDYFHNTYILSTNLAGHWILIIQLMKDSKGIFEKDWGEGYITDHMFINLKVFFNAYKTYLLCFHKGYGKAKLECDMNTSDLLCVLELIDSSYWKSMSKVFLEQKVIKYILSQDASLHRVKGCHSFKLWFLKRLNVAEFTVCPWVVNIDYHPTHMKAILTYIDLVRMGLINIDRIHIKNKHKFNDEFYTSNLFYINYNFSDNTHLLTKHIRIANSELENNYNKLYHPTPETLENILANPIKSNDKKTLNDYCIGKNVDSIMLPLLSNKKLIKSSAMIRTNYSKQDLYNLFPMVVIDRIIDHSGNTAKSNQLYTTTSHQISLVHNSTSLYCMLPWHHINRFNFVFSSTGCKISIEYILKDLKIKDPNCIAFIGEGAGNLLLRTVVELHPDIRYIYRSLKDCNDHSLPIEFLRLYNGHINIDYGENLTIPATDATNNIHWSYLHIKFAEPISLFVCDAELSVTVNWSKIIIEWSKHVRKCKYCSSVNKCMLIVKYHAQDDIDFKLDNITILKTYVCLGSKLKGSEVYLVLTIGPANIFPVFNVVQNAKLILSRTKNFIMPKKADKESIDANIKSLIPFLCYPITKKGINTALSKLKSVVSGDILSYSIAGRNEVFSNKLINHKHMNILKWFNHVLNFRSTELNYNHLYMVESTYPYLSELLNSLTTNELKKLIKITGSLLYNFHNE
Sequence of recombinant RSV complex (P03421 whole entry, further chain): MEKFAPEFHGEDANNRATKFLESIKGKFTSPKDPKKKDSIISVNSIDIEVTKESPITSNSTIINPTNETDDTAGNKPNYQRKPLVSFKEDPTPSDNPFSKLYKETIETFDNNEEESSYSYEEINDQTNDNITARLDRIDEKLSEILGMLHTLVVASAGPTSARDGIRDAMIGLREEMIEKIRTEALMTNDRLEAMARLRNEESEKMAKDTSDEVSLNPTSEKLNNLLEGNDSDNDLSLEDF

COc1cc(C(=O)NCC(O)(c2cc(C3(C)CCN(C)C3)cc(-c3ccc(F)cc3)n2)C(F)(F)F)ccc1OC1CC1 (stereo not shown) [Compound 506]
EC50 (RSV replicon): < 1000 nM | IC50 (recombinant RSV complex): < 1000 nM

COc1cc(C(=O)NCC(O)(c2ccc(OC)c(-c3ccc(F)c(Cl)c3)n2)C(F)(F)F)ccc1OCc1ccn[nH]1 (stereo not shown) [Compound 332]
EC50 (RSV replicon): 1000 to 50000 nM | IC50 (recombinant RSV complex): < 1000 nM

COc1cc(C(=O)NCC(O)(c2cc(C(C)(C)N)cc(-c3ccc(F)c(Br)c3)n2)C(F)(F)F)ccc1OC1CC1 (stereo not shown) [Compound 524]
EC50 (RSV replicon): < 1000 nM | IC50 (recombinant RSV complex): < 1000 nM

COc1cc(-c2cc(C(C)(C)N)cc(C(O)(CNC(=O)c3ccc(OCCO)c(OC)c3)C(F)(F)F)n2)ccn1 (stereo not shown) [Compound 659]
EC50 (RSV replicon): < 1000 nM | IC50 (recombinant RSV complex): < 10000 nM

COc1cc(C(=O)NCC(O)(c2ccc(OC)c(-c3ccc(F)c(Cl)c3)n2)C2CC2)ccc1OCC(N)=O (stereo not shown) [Compound 398]
EC50 (RSV replicon): < 1000 nM | IC50 (recombinant RSV complex): < 1000 nM

COc1cc(C(=O)NCC(O)(c2cc3c(c(-c4ccc(F)c(Cl)c4)n2)OCC=C3)C2CC2)ccc1OCCO (stereo not shown) [Compound 306]
EC50 (RSV replicon): < 1000 nM | IC50 (recombinant RSV complex): < 1000 nM

COc1cc(C(=O)NCC(O)(c2cc(C(C)(C)N)cc(-c3ccc(F)cc3)n2)C(F)(F)F)ccc1OC/C(N)=N/O (stereo not shown) [Compound 636]
EC50 (RSV replicon): < 1000 nM | IC50 (recombinant RSV complex): < 1000 nM

COc1cc(C(=O)NCC(C)(O)c2ccc(OC)c(-c3ccc(F)c(Cl)c3)n2)ccc1-c1ccncc1 (stereo not shown) [Compound 147]
EC50 (RSV replicon): < 1000 nM | IC50 (recombinant RSV complex): < 1000 nM

COc1cc(C(=O)NCC(O)(c2cc3c(c(-c4c[nH]c5c(F)cccc45)n2)OCC3(C)N)C(F)(F)F)ccc1OCCO (stereo not shown) [Compound 647]
EC50 (RSV replicon): < 1000 nM | IC50 (recombinant RSV complex): < 1000 nM

CNC(C)(C)c1cc(-c2ccc(F)cc2)nc(C(O)(CNC(=O)c2ccc(OC3CC3)c(OC)c2)C(F)(F)F)c1 (stereo not shown) [Compound 393]
EC50 (RSV replicon): < 1000 nM | IC50 (recombinant RSV complex): < 1000 nM

COc1cc(C(=O)NCC(O)(c2cc(C(C)(C)N)cc(-c3ccc(C(F)(F)F)cc3)n2)C(F)(F)F)ccc1OC1CC1 (stereo not shown) [Compound 523]
EC50 (RSV replicon): < 1000 nM | IC50 (recombinant RSV complex): < 1000 nM

COc1cc(C(=O)NCC(O)(c2cc(C3(NC(C)=O)CCC3)cc(-c3ccc(F)c(Cl)c3)n2)C(F)(F)F)ccc1OC1CC1 (stereo not shown) [Compound 354]
EC50 (RSV replicon): < 1000 nM | IC50 (recombinant RSV complex): < 1000 nM

COc1cc(C(=O)NCC(O)(c2cc(C3(C)CN(C(C)C)C3)cc(-c3ccc(F)cc3)n2)C(F)(F)F)ccc1OCCO (stereo not shown) [Compound 584]
EC50 (RSV replicon): < 1000 nM | IC50 (recombinant RSV complex): < 1000 nM

COc1cc(C(=O)NCC(O)(c2cc(C(C)(C)NC(C)=O)cc(-c3ccc(F)c(Cl)c3)n2)C(F)(F)F)ccc1OC[C@@H](C)O (stereo partly shown) [Compound 601]
EC50 (RSV replicon): < 1000 nM | IC50 (recombinant RSV complex): < 1000 nM

COc1cc(C(=O)NCC(O)(c2ccc(OC)c(-c3ccc(F)c(Cl)c3)n2)C(F)(F)F)ccc1OC(C)C (stereo not shown) [Compound 378]
EC50 (RSV replicon): 1000 to 50000 nM | IC50 (recombinant RSV complex): < 1000 nM

COc1ccc(C(O)(CNC(=O)c2ccc(OCC(N)=O)c(F)c2)C(F)(F)F)nc1-c1ccc(F)c(Cl)c1 (stereo not shown) [Compound 380]
EC50 (RSV replicon): < 1000 nM | IC50 (recombinant RSV complex): < 1000 nM

COc1cc(C(=O)NCC(O)(c2cc(C3(O)CNC3)cc(-c3ccc(F)c(Cl)c3)n2)C(F)(F)F)ccc1OC1CC1 (stereo not shown) [Compound 555]
EC50 (RSV replicon): < 1000 nM | IC50 (recombinant RSV complex): < 1000 nM

COc1cc(C(=O)NCC(O)(c2cc(C(C)(N)CO)cc(-c3ccc(F)cc3)n2)C(F)(F)F)ccc1OC1CC1 (stereo not shown) [Compound 600]
EC50 (RSV replicon): < 1000 nM | IC50 (recombinant RSV complex): < 1000 nM

COc1cc(C(=O)NCC(O)(c2cc(C3CCNCC3)cc(-c3ccc(F)c(Cl)c3)n2)C(F)(F)F)ccc1OC1CC1 (stereo not shown) [Compound 576]
EC50 (RSV replicon): < 1000 nM | IC50 (recombinant RSV complex): < 1000 nM

COc1cc(C(=O)NCC(C)(OC)c2ccc(OC)c(-c3ccc(F)c(Cl)c3)n2)ccc1OC1CC1 (stereo not shown) [Compound 376]
EC50 (RSV replicon): < 1000 nM | IC50 (recombinant RSV complex): < 1000 nM

COc1cc(C(=O)NCC(O)(c2cc(C3(N)CCC3)cc(-c3ccc(F)c(Cl)c3)n2)C(F)(F)F)ccc1OC1CC1 (stereo not shown) [Compound 355]
EC50 (RSV replicon): < 1000 nM | IC50 (recombinant RSV complex): < 1000 nM

COc1ccc(C(=O)NCC(O)(c2cc(C(C)(C)N)cc(-c3ccc(F)c(Cl)c3)n2)C(F)(F)F)cc1OC (stereo not shown) [Compound 316]
EC50 (RSV replicon): < 1000 nM | IC50 (recombinant RSV complex): < 1000 nM

CCNCc1cc(-c2ccc(F)cc2)nc(C(O)(CNC(=O)c2ccc(OC3CC3)c(OC)c2)C(F)(F)F)c1 (stereo not shown) [Compound 389]
EC50 (RSV replicon): < 1000 nM | IC50 (recombinant RSV complex): < 1000 nM

COc1cc(C(=O)NCC(O)(c2cc(C3(C)CC(O)C3)cc(-c3ccc(F)c(Cl)c3)n2)C(F)(F)F)ccc1OC1CC1 (stereo not shown) [Compound 564]
EC50 (RSV replicon): < 1000 nM | IC50 (recombinant RSV complex): < 10000 nM

COc1cc(C(=O)NCC(C)(O)c2cc(C(C)(C)N)cc(-c3ccc(F)cc3)n2)ccc1OCC(N)=O (stereo not shown) [Compound 602]
EC50 (RSV replicon): < 1000 nM | IC50 (recombinant RSV complex): < 1000 nM

COc1cc(C(=O)NCC(O)(c2cc(C(C)(C)N)cc(-c3ccc(F)c(Cl)c3)n2)C(F)(F)F)ccc1OCC(F)F (stereo not shown) [Compound 395]
EC50 (RSV replicon): < 1000 nM | IC50 (recombinant RSV complex): < 1000 nM

COc1cc(C(=O)NCC(C)(O)c2ccc(OC)c(-c3ccc(F)c(Cl)c3)n2)ccc1-n1cccn1 (stereo not shown) [Compound 128]
EC50 (RSV replicon): 1000 to 50000 nM | IC50 (recombinant RSV complex): < 1000 nM

COc1cc(C(=O)NCC(O)(c2cc(C(C)(C)N)cc(-c3ccc(F)c(Cl)c3)n2)C(F)(F)F)ccc1OCC(C)OC(=O)OC(C)C (stereo not shown) [Compound 572]
EC50 (RSV replicon): < 1000 nM | IC50 (recombinant RSV complex): < 10000 nM

COc1cc(C(=O)NCC(O)(c2cc3c(c(-c4ccc(Br)cc4)n2)OCC3(C)N)C(F)(F)F)ccc1OCCO (stereo not shown) [Compound 651]
EC50 (RSV replicon): < 1000 nM | IC50 (recombinant RSV complex): < 1000 nM

COc1cc(C(=O)NCC(O)(c2cc([C@]3(C)CCN3)cc(-c3ccc(F)c(Cl)c3)n2)C(F)(F)F)ccc1OC1CC1 (stereo partly shown) [Compound 603]
EC50 (RSV replicon): < 1000 nM | IC50 (recombinant RSV complex): < 1000 nM

COc1cc(C(=O)NCC(O)(c2cc(C(C)(C)N)cc(-c3ccc(Cl)nc3)n2)C(F)(F)F)ccc1OC1CC1 (stereo not shown) [Compound 567]
EC50 (RSV replicon): < 1000 nM | IC50 (recombinant RSV complex): < 1000 nM

COc1cc(C(=O)NCC(O)(c2ccc(OC)c(-c3ccc(F)cc3)n2)C(F)(F)F)ccc1OCC(F)F (stereo not shown) [Compound 341]
EC50 (RSV replicon): < 1000 nM | IC50 (recombinant RSV complex; read-out: IC50 (compound concentration at which the enzyme-catalyzed rate was reduced by 50%), 10 nM recombinant RSV complex, 2 h at 30° C., Tables E, F and G list compounds by IC50 band): < 1000 nM

COc1cc(C(=O)NCC(F)(c2cc(C(C)(C)N)cc(-c3ccc(F)c(Cl)c3)n2)C(F)(F)F)ccc1OC1CC1 (stereo not shown) [Compound 641]
EC50 (RSV replicon): < 1000 nM | IC50 (recombinant RSV complex): < 1000 nM

COc1cc(C(=O)NCC(O)(c2cc3c(c(-c4ccc(F)cc4)n2)OCC3(C)N)C(F)(F)F)ccc1OC1CC1 (stereo not shown) [Compound 509]
EC50 (RSV replicon): < 1000 nM | IC50 (recombinant RSV complex): < 1000 nM

COC(=O)C(C)(N)c1cc(-c2ccc(F)cc2)nc(C(O)(CNC(=O)c2ccc(OC3CC3)c(OC)c2)C(F)(F)F)c1 (stereo not shown) [Compound 622]
EC50 (RSV replicon): < 1000 nM | IC50 (recombinant RSV complex): < 1000 nM

COc1cc(C(=O)NCC(C)(O)c2ccc(OC)c(-c3ccc(F)c(Cl)c3)n2)ccc1OCS(C)(=O)=O (stereo not shown) [Compound 379]
EC50 (RSV replicon): < 1000 nM | IC50 (recombinant RSV complex): < 1000 nM

COc1cc(C(=O)NCC(=O)c2cc3c(c(-c4ccc(F)c(Cl)c4)n2)OCCC3(C)C)ccc1OCCO [Compound 311]
EC50 (RSV replicon): < 1000 nM | IC50 (recombinant RSV complex): < 1000 nM

COc1cc(C(=O)NCC(O)(c2cc(C(C)(C)CN)cc(-c3ccc(F)c(Cl)c3)n2)C(F)(F)F)ccc1OC1CC1 (stereo not shown) [Compound 397]
EC50 (RSV replicon): < 1000 nM | IC50 (recombinant RSV complex): < 1000 nM

COc1cc(C(=O)NCC(C)(OC)c2ccc(OC)c(-c3ccc(F)c(Cl)c3)n2)ccc1OCC(F)F (stereo not shown) [Compound 375]
EC50 (RSV replicon): 1000 to 50000 nM | IC50 (recombinant RSV complex): < 1000 nM

COc1cc(C(=O)NCC(O)(c2cc(C(C)(C)NC3COC3)cc(-c3ccc(F)cc3)n2)C(F)(F)F)ccc1OC1CC1 (stereo not shown) [Compound 581]
EC50 (RSV replicon): < 1000 nM | IC50 (recombinant RSV complex): < 1000 nM

COc1cc(C(=O)NCC(C)(O)c2cc3c(c(-c4ccc(F)c(Cl)c4)n2)OCC=C3)ccc1OCCO (stereo not shown) [Compound 307]
EC50 (RSV replicon): < 1000 nM | IC50 (recombinant RSV complex): < 1000 nM

COc1ccc(C(O)(CNC(=O)c2ccc(OC3CC3)c(Cl)c2)C(F)(F)F)nc1-c1ccc(F)c(Cl)c1 (stereo not shown) [Compound 251]
CC50 at 5 days [1]: 10000 to 100000 nM | IC50 (recombinant RSV complex): < 1000 nM | EC50 [2]: 1000 to 50000 nM

COc1ccc(C(O)(CNC(=O)c2ccc3c(c2)[nH]c(=O)n3C)C(F)(F)F)nc1-c1ccc(F)c(Cl)c1 (stereo not shown) [Compound 268]
CC50 at 5 days [1]: 10000 to 100000 nM | IC50 (recombinant RSV complex): < 10000 nM | EC50 [2]: 1000 to 50000 nM
